What all share (type): cell-based
Experiment [1] deals with human mesenchymal stem cells (hMSC). In words: Cell proliferation of hMSCs depending on the culture conditions. The note with it: for number of MSC: add-on of ATRA (from J5); for effect on cell proliferation (number of MSCs): whatever the conditions / FBS concentration (2% or 10% FBS). The text has this: Adult human bone marrow mononuclear cells Ficoll-extracted from two donors were obtained from Lonza. Cells were passaged once a week. The human mesenchymal stem cells (hMSC) were selected by plastic adherence and expanded by plating 50 000 cells/cm^2 in Modified Eagle Medium Alpha (MEMalpha, MacoPharma) supplemented with 10% Fetal Bovine Serum (FBS, PAA Laboratoires) and 0.1% Penicilline/Streptomycine (P/S, Lonza). The culture medium was changed after 3 days and then every day. After 2 to 5 weeks of culture at 37° C. in a humid environment and under 5% CO2, hMSC were harvested by trypsinization. The phenotype was confirmed by FACS analysis (BD Bioscience, BD LSR II) with CD73, CD90 and CD105 (positive), as well as CD34 and CD45 (negative) (Table 1).
(§1) To investigate the neural differentiation capacity of the peptides, 25 cm^2 flasks and 12-wells culture plates were coated with sterile aqueous solutions of either NX210 or NS640 at a concentration of 80 μg/cm^2. Coatings were carried out at 37° C. and 5% CO2 over-night prior to cell plating.
On Day 0 (D0), hMSC were seeded at a concentration of 3,000 cells/cm^2 in pre-coated 25 cm^2 flasks or 12-well culture plates in complete medium and culture was placed at 37° C. in a humid environment and under 5% CO2. After 24h, medium was changed and replaced by different combinations of media containing either: MEMalpha—bFGF 12.5 ng/mL—FBS 2%—P/S 0.1%; MEMalpha—bFGF 12.5 ng/mL—FBS 10%—P/S 0.1%; MEMalpha—FBS 2%—P/S 0.1% (control condition); MEMalpha—FBS 10%—P/S 0.1% (control condition). The cells were placed at 37° C. in a humid environment and under 5% CO2, and medium was changed twice a week. […] thus was changed with: MEMalpha—ATRA […]—FBS 2%—P/S 0.1%; MEMalpha—ATRA 20 μM—FBS 10%—P/S 0.1%; MEMalpha—FBS 2%—P/S 0.1% (control condition); MEMalpha—FBS 10%—P/S 0.1% (control condition). The cells were placed at 37° C. in a humid environment and under 5% CO2. Medium was changed twice a week. On Day 15 (D15), cells were harvested by trypsinization for mRNA extraction or fixed immunocytochemical analysis.

For experiment [2] the test system is unchanged. Briefly: Neural differentiation of hMSCs: gene expression by real-time PCR. The protocol: as §1
On Day 0 (D0), hMSC were seeded at a concentration of 3,000 cells/cm^2 in pre-coated 25 cm^2 flasks or 12-well culture plates in complete medium and culture was placed at 37° C. in a humid environment and under 5% CO2. After 24h, medium was changed and replaced by different combinations of media containing either: MEMalpha—bFGF 12.5 ng/mL—FBS 2%—P/S 0.1%; MEMalpha—bFGF 12.5 ng/mL—FBS 10%—P/S 0.1%; MEMalpha—FBS 2%—P/S 0.1% (control condition); MEMalpha—FBS 10%—P/S 0.1% (control condition). The cells were placed at 37° C. in a humid environment and under 5% CO2, and medium was changed twice a week. On Day 8, medium was replaced by medium containing ATRA in the place of bFGF and thus was changed with: MEMalpha—ATRA […]—FBS 2%—P/S 0.1%; MEMalpha—ATRA 20 μM—FBS 10%—P/S 0.1%; MEMalpha—FBS 2%—P/S 0.1% (control condition); MEMalpha—FBS 10%—P/S 0.1% (control condition). The cells were placed at 37° C. in a humid environment and under 5% CO2. Medium was changed twice a week. […]
Total RNA was extracted using RNAeasy total purification kit following instructions of the manufacturer (Qiagen). cDNA were generated using a High-Capacity cDNA Reverse Transcription kit (Applied Biosystems) as described by the manufacturer.
The expression levels of genes (GFAP, Musashi 1, Nestin, Beta3-Tubuline, MAP-2 and GAPDH) were analyzed by real-time PCR using TaqMan gene Expression Master Mix (Applied Biosystems) on the Applied Biosystems 7900 Real time PCR system (Life technologies). Samples were analyzed in triplicates. Data were normalized using the GAPDH gene as an internal control and relative quantification (RQ) of the genes in a sample was determined according to the equation 2^−Δct.
Background: Quantitative PCR measures a nucleic acid by following its amplification.

The test system is the same in experiment [3]. In words: Neural differentiation of hMSCs: immunocytochemical analysis (Nestin, MAP-2). The note with it: bFGF; for MAP-2 marker expression (immunocytochemistry staining) / Nestine marker expression (immunocytochemistry staining): 2% FBS, with or without peptide coating (FIG. 8); for Nestine expression (staining intensity): with or without peptide coating, compared to the control condition (FIG. 8). The protocol: as §1
On Day 0 (D0), hMSC were seeded at a concentration of 3,000 cells/cm^2 in pre-coated 25 cm^2 flasks or 12-well culture plates in complete medium and culture was placed at 37° C. in a humid environment and under 5% CO2. After 24h, medium was changed and replaced by different combinations of media containing either: MEMalpha—bFGF 12.5 ng/mL—FBS 2%—P/S 0.1%; MEMalpha—bFGF 12.5 ng/mL—FBS 10%—P/S 0.1%; MEMalpha—FBS 2%—P/S 0.1% (control condition); MEMalpha—FBS 10%—P/S 0.1% (control condition). The cells were placed at 37° C. in a humid environment and under 5% CO2, and medium was changed twice a week. On Day 8, medium was replaced by medium containing ATRA in the place of bFGF and thus was changed with: MEMalpha—ATRA […]—FBS 2%—P/S 0.1%; MEMalpha—ATRA 20 μM—FBS 10%—P/S 0.1%; MEMalpha—FBS 2%—P/S 0.1% (control condition); MEMalpha—FBS 10%—P/S 0.1% (control condition). The cells were placed at 37° C. in a humid environment and under 5% CO2. Medium was changed twice a week. On Day 15 (D15), cells were harvested by trypsinization for mRNA extraction or fixed immunocytochemical analysis.
Assessment of differentiation was performed by gene expression after extraction of mRNA at various time point (DO, D1, D8 and D15), and immunocytochemical analysis performed at the end of the culture period (D15).
Immunocytochemical analyses were carried out on cells fixed in 4% paraformaldehyde and using standard protocols. After blocking with Triton 1×0.1%/BSA 5% during 30 min, cells were incubated with antibodies directed against Nestin (Millipore) or MAP-2 (Sigma) overnight at +4° C. After washing, appropriate FITC or Cyandidine-5 labelled secondary antibody are added. Nuclei were counterstained with Hoescht 33258 (Sigma). Obervations were performed using Leica TCS LSI system.

[4] abbreviates: patient no 1, day 5, bFGF 10% without ATRA (FIG. 6).
The mark [5] stands for this setting: patient no 1, bFGF 10% without ATRA (FIG. 6).
Where [6] appears, read: patient no 1, bFGF 10% without ATRA, with respect to J0 (FIG. 6).
Setting [7] is: patient no 2, bFGF 10% without ATRA (FIG. 7).
Setting [8] is: patient no 2, bFGF 10% without ATRA, with respect to J0 (FIG. 7).

Square brackets hold non-standard residues; d marks the D form. Ends that are not written are not given here. Abu = CC[C@H](N)C(=O)O

Consider `CC1=C(/C=C/C(C)=C/C=C/C(C)=C/C(=O)O)C(C)(C)CCC1` [ATRA, reference compound], for which the “number of MSC” value was “small difference” in experiment [1] (2% FBS) and “decrease” in experiment [1] (10% FBS).

Regarding “W-S-G-W-S-S-Abu-S-R-S-Nm (WSGWSS[Abu]SRS-NH2; N-terminus assumed; SMILES CC[C@H](NC(=O)[C@H](CO)NC(=O)[C@H](CO)NC(=O)[C@H](Cc1c[nH]c2ccccc12)NC(=O)CNC(=O)[C@H](CO)NC(=O)[C@@H](N)Cc1c[nH]c2ccccc12)C(=O)N[C@@H](CO)C(=O)N[C@@H](CCCNC(=N)N)C(=O)N[C@@H](CO)C(N)=O) [NS640]”, in experiment [1], the “effect on cell proliferation (number of MSCs)” value is “no effect”. In addition, the “effect of peptide coating on the increase in Nestin, βIII-Tubulin and MAP-2 gene expression” value in experiment [2] (bFGF then ATRA, 2% FBS, peptide coating 80 μg/cm2) was “does not modify this increase”. The MAP-2 expression in experiment [2] (bFGF then ATRA, 10% FBS, peptide coating, vs ×0.75 without peptide (FIG. 5)) stood at 1.46 ×. In addition, in experiment [2] (bFGF then ATRA, 10% FBS, peptide coating, vs ×1.2 without peptide (FIG. 5)), the Nestin expression is recorded as 1.5 ×. The Nestin expression in experiment [2] (setting [4]) amounted to 2 ×. Further, in experiment [2] (patient no 2, after 5 days of culture, with bFGF (FIG. 7)), the βIII-Tubuline expression entry is listed as “maximized”. Further, in experiment [3], the “MAP-2 marker expression (immunocytochemistry staining)” value is reported as “stronger staining” and the “Nestine marker expression (immunocytochemistry staining)” value is listed as “stronger staining”. For the same compound, the MAP-2 protein presence result in experiment [3] (10% FBS, peptide coating (FIG. 8)) is recorded as “makes possible to observe MAP-2 protein presence”. Moreover, the “Nestine expression (staining intensity)” value in experiment [3] (10% FBS) is recorded as “maximized”.

Consider “bFGF: growth factor added to the hMSC culture medium at 12.5 ng/mL”, for which the “effect on cell proliferation (number of MSCs)” value in experiment [1] is given as “positive effect”. Also, in experiment [2] (2% FBS, Patient no2), the “Induction of gene expression: MAP-2 P2” value is 3. For the same compound, the Musashi-1 expression entry in experiment [2] (setting [5]) and in experiment [2] (setting [7]) was “decrease” throughout. Besides, the Nestin expression entry is on record as “decrease” in experiment [2] (setting [5]); 0.6 × in experiment [2] (setting [4]); “decrease” in experiment [2] (setting [7]); 0.6 × in experiment [2] (patient no 2, bFGF 10% without ATRA, with or without coating (FIG. 7)). The “expression of MAP-2” value in experiment [2] (setting [6]) and in experiment [2] (setting [8]) was 2.3 × throughout. Besides, the “expression of βIII Tubulin” value in experiment [2] (setting [6]) and in experiment [2] (setting [8]) was 9.3 × each time. For the same compound, in experiment [2] (patient no 2, D5, with bFGF (FIG. 7)), the MAP-2 expression entry is on record as “decreased”. The “MAP-2 marker expression (immunocytochemistry staining)” value in experiment [3] is recorded as “increases the expression”. In addition, the “Nestine marker expression (immunocytochemistry staining)” value in experiment [3] is on record as “increases the expression”. In addition, the “Nestine expression (staining intensity)” value in experiment [3] (10% FBS) is “increases Nestine expression”.

These data come from US20200080053A1, “USE OF PEPTIDE COMPOUNDS FOR PROMOTING SURVIVAL, GROWTH AND CELL DIFFERENTIATION” (Axoltis Pharma, priority 2016, published 2020).
